Data on one compound can be found in publication PMC7449170, “ATI-2173, a Novel Liver-Targeted Non-Chain-Terminating Nucleotide for Hepatitis B Virus Cure Regimens” (Antimicrobial Agents and Chemotherapy, 2020).

A value given as a limit tells only on which side of the number the result lay.

The nature of series [1]: Cell viability (CC50) in primary human hepatocytes.
The nature of series [2]: Cell viability (CC50) in HepG2.2.15 cells. The note with it: human.
For another series, the system named is HBV genotype D. The series can be described thus: Anti-HBV activity in HepG2.2.15 cells (extracellular HBV DNA by qPCR). The format is cell-based. Conditions: Hepatitis B virus, 192 h; HepG2.2.15 cells, qPCR, day 8; read-out: EC50, extracellular HBV DNA. On the procedure:
ATI-2173 was obtained from WuXi SynTheAll. Entecavir (positive control) was obtained from Shanghai Titan Scientific Co., Ltd. HepG2.2.15 cells (derived from human hepatoblastoma cell-like HepG2) contain four 5′ to 3′ tandem copies of the HBV genotype D and were provided by WuXi. HepG2.2.15 cells were cultured in Dulbecco’s modified Eagle medium (DMEM)/F12 (Invitrogen, 11330032) supplemented with 2% fetal bovine serum (FBS) (HyClone, SV30087.03), 1% L-glutamine, 1% minimum essential medium (MEM) nonessential amino acid solution (NEAA), and 1% penicillin-streptomycin solution. QIAamp 96 DNA blood kit was purchased from Qiagen (51162). […] Culture medium containing ATI-2173 or entecavir (serially diluted) was added to cells on day 2 and refreshed on day 5. ATI-2173 dilutions were: 0.0006, 0.0024, 0.0098, 0.0391, 0.1563, 0.6250, 2.5000, and 10.0000 μM. On day 8, cell culture supernatants were collected and DNA was extracted by the QIAamp 96 DNA blood kit. qPCR was run at 95°C for 10 min, then cycled at 95°C for 15 s, 60°C for 1 min, for a total of 40 cycles. HBV DNA content in the samples was calculated according to the standard curve and CT (cycle threshold of qPCR) values of a sample. Data were normalized for maximum and minimum copy numbers.

Series [3] deals with respiratory syncytial virus. The series can be described thus: Antiviral panel: respiratory syncytial virus. It counts as cell-based. The note with it: up to 100 μM, data not shown.
Series [4] is described as follows: Pharmacokinetics and tissue concentration in rats after single oral dose. It counts as in vivo, Sprague-Dawley rats. The note with it: single oral 50 mg/kg ATI-2173 vs 25 mg/kg clevudine. As for the experimental part: Female Sprague Dawley (SD) rats (from Envigo, NJ), 225 to 249 g, were used in the studies. Clevudine and ATI-2173 were administered by oral gavage (p.o.) in carboxyl methyl cellulose/PEG 400/Tween 20 (0.5%/20%/5%). The oral doses were administered at 25 mg/kg and 50 mg/kg, respectively. Blood samples were collected at 1, 2, 4, 6, 8, and 24 h into lithium-heparin microtainer tubes (BD). Plasma samples were prepared within 30 min after collection by centrifugation at 2,000× rcf for 10 min at 4°C and stored at –80°C before processing for analysis by liquid chromatography-tandem mass spectrometry (LC-MS/MS). Rat organs (skeletal muscle, liver, and heart) were collected from all rats immediately following blood collection at all time points. The tissues were immediately snap-frozen in liquid nitrogen and stored at –80°C before processing for analysis by LC-MS/MS. […]
Samples were maintained at 4°C in a Leap Pal Autosampler (CTC Analytics AG, Zwingen, Switzerland). Plasma concentrations of ATI-2173 and clevudine were determined using qualified methods with an assay range of 10 to 1,000 ng/ml. […] QCs were prepared at 30, 500, and 900 ng/ml and were measured within ± 30% of actual values. […]
Tissue levels were measured according to qualified LC-MS/MS methods with an assay range of 18 to 18,000 ng/g of tissue. […]

A further series deals with HBV rtN236T. The series can be described thus: microbe, parasite or virus in culture. The format is cell-based. The note with it: Hepatitis B virus, HepG2.

`Cc1cn(C2OC(COP(=O)(NC(C)C(=O)OC(C)C)Oc3ccccc3)C(O)C2F)c(=O)[nH]c1=O` (stereo not drawn) [ATI-2173]: the CC50 in series [1] is over 20 nM; in series [2], over 10000 nM. For the same compound, the figures for the EC50 in the series on HBV genotype D and with HBV rtN236T were 260 nM and 386 nM, respectively. Besides, the Antiviral efficacy entry in series [3] is “no detectable efficacy”. Moreover, the “Liver exposure to the 5′-triphosphate versus equimolar clevudine” value in series [4] was “nearly identical liver exposure”.
